We go through 10 substances from US20250304643A1, “PEPTIDE DUAL AGONISTS OF GIPR AND GLP2R” (BAINAN BIOTECH APS, priority 2021, published 2025).

Holding throughout (format): cell-based
Assay [1] concerns the target T1, human GLP-2R (Homo sapiens, UniProt O95838).
T1 construct: host or cells: COS-7
T1 sequence (O95838 1-553): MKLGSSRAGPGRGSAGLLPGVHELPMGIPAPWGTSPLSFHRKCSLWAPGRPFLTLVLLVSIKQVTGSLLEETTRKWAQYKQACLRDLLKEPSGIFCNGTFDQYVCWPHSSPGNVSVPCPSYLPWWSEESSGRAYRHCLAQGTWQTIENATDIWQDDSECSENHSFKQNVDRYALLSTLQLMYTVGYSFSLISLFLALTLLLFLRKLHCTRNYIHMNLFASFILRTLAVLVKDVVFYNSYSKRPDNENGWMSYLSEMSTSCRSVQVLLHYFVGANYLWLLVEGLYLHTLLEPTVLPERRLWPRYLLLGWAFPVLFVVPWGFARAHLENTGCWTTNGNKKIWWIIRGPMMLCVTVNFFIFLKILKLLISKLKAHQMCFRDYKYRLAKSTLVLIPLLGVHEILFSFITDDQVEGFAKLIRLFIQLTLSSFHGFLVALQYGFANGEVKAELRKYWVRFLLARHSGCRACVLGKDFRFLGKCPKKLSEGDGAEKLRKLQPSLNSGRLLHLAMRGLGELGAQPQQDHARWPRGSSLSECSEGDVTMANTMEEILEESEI
Briefly: HitHunter cAMP assay in transiently transfected COS-7 cells, human GLP-2R.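 Also: cells kept 30 min at 37 °C in buffer with 1 mM IBMX, then given ligand for another 30 min at 37 °C before cAMP readout.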 The conditions noted are these: Emax normalized to highest concentration of endogenous ligand; Table 2.
Procedure: COS-7 cells were cultured at 10% CO2 and 37° C. in Dulbecco's Modified Eagle Medium (DMEM) 1885 supplemented with 10% fetal bovine serum (FBS), 2 mM glutamine, 180 units/ml penicillin, and 45 g/ml streptomycin.
The next day the assay was initiated by washing with HEPES buffered saline (HBS) and followed by an incubation step with assay buffer (HBS added 1 mM isobutyl-1-methylxanthine (IBMX)) for 30 min at 37° C. The ligands were then added and incubated for an additional 30 min at 37° C. After ligand incubation, the HitHunter® CAMP assay (Eurofins DiscoverX, Fremont, 150 USA) was carried out according to the manufacturer's instructions. Luminescence was measured by PerkinElmer™ EnVision 2014 Multilabel Reader (PerkinElmer, Waltham, MA). The potencies (EC50 values) were determined by nonlinear regression using GraphPad Prism 9 (San Diego, California, USA). Sigmoid curves were fitted logistically. The efficacies (Emax values) were determined by normalization to the highest concentration applied of the endogenous ligand for each receptor.

Assay [2] addresses T2, human GLP-1R (Homo sapiens, UniProt P43220).
T2 construct: host or cells: COS-7
Briefly: HitHunter cAMP assay in transiently transfected COS-7 cells, human GLP-1R. The conditions noted are these: Emax normalized to highest concentration of endogenous ligand; Table 3. Here is the method: (§1) The next day the assay was initiated by washing with HEPES buffered saline (HBS) and followed by an incubation step with assay buffer (HBS added 1 mM isobutyl-1-methylxanthine (IBMX)) for 30 min at 37° C. The ligands were then added and incubated for an additional 30 min at 37° C. After ligand incubation, the HitHunter® CAMP assay (Eurofins DiscoverX, Fremont, […] USA) was carried out according to the manufacturer's instructions. Luminescence was measured by PerkinElmer™ EnVision 2014 Multilabel Reader (PerkinElmer, Waltham, MA). The potencies (EC50 values) were determined by nonlinear regression using GraphPad Prism 9 (San Diego, California, USA). Sigmoid curves were fitted logistically. The efficacies (Emax values) were determined by normalization to the highest concentration applied of the endogenous ligand for each receptor.

Assay [3] deals with T3, rat GIPR (Rattus norvegicus, UniProt P43219).
T3 construct: expressed in transfected cells; host or cells: COS-7
T3 sequence (P43219 19-455): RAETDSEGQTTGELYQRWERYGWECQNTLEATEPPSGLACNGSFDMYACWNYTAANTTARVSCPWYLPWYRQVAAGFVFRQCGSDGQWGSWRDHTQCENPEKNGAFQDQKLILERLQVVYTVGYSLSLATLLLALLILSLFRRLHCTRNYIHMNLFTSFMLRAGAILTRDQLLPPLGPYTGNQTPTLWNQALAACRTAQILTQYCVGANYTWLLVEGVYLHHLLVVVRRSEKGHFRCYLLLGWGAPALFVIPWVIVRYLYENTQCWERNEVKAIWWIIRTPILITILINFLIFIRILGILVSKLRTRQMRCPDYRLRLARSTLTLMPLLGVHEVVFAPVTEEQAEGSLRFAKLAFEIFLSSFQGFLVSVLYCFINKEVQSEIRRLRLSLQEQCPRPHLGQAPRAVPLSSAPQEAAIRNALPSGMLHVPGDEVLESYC
Briefly: HitHunter cAMP assay in transiently transfected COS-7 cells, rat GIPR. The conditions noted are these: Emax normalized to highest concentration of endogenous ligand. Here is the method: as §1

Assay [4] addresses T4, rat GLP-2R (Rattus norvegicus, UniProt Q9Z0W0).
T4 construct: expressed in transfected cells; host or cells: COS-7
T4 sequence (Q9Z0W0 1-550): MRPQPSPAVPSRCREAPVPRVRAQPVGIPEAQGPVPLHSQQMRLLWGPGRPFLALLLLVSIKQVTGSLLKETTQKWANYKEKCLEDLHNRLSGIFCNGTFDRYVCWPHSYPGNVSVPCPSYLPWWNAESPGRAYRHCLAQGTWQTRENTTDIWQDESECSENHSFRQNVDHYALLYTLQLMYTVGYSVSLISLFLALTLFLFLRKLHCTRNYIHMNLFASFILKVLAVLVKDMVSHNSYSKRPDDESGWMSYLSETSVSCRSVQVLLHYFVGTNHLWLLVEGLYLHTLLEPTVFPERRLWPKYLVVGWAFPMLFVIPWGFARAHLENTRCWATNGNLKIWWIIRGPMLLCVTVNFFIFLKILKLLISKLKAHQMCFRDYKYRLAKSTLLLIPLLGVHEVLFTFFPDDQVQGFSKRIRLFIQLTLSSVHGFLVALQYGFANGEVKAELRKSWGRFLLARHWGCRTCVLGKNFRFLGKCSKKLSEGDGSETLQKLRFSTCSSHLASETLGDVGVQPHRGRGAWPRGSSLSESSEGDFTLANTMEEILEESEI
In words: HitHunter cAMP assay in transiently transfected COS-7 cells, rat GLP-2R. The conditions noted are these: Emax normalized to highest concentration of endogenous ligand. Here is the method:
as §1

The target of assay [5] is T5, human GIPR (Homo sapiens, UniProt P48546).
T5 sequence (P48546 22-466): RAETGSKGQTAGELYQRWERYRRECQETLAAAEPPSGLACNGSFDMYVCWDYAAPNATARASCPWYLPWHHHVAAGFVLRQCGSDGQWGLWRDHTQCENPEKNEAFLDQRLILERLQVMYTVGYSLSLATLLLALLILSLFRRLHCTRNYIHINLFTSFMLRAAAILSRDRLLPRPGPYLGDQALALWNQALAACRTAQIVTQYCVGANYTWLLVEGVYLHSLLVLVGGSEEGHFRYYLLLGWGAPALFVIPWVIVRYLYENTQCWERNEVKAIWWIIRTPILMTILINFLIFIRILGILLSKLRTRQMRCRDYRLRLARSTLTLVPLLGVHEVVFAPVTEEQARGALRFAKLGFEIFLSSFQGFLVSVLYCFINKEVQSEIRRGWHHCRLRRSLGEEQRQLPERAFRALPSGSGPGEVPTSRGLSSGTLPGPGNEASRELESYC
Further details: host or cells: COS-7. To be noted: Emax normalized to highest concentration of endogenous ligand; Table 2.

Assay [6] deals with T6, human SNAP-GIPR (Homo sapiens, UniProt P48546).
T6 construct: host or cells: HEK293A
T6 sequence (P48546 22-466): T5 sequence (P48546 22-466)
More on the design: AUC ± SD: unit not given beside the values. The conditions noted are these: for Emax ± SD (%): GIPR internalization, NA = no activity.

The target in assay [7] is T5, human GIPR. Further details: host or cells: HEK293. To be noted: beta-arrestin 2 recruitment; for AUC ± SD: AUC of sigmoid curves up to 100 nM; for Emax ± SD (%): normalized to highest concentration of GIP, NA = no activity.
Procedure: HEK293 cells were cultured at 10% CO2 and 37° C. in DMEM-GlutaMAX™-I supplemented with 10% FBS, 180 units/mL penicillin and 45 g/mL streptomycin. These cells were transfected using PEI for the beta-arrestin recruitment assay as described in detail in (van der Velden et al., 2021).
HEK293 cells were transiently transfected with human GIPR, the donor Rluc8-Arrestin-3-Sp1 (beta-arrestin 2 recruitment), the acceptor mem-linker-citrine-SH3, and the GPCR kinase 2 (GRK2). Two days following transfection, the cells were washed with PBS and resuspended in PBS with 5 mM glucose. Then, 85 μL of the cell suspension solution was added to each well of a white 96-well plate followed by the addition of PBS with 5 μM coelenterazine-h. Following 10 min incubation, increasing concentrations of ligands were added and incubated for an additional 30 min. Luminescence was measured with the Berthold Technologies Mithras Multilabel Reader (Rluc8 at 485±40 nm and YFP at 530±25 nm). The potencies (EC50 values) were determined by nonlinear regression using GraphPad Prism 9 (San Diego, California, USA). Sigmoid curves were fitted logistically. The efficacies (Emax values) were determined by normalization to the highest concentration applied of the endogenous ligand (GIP) for the GIPR.

T2 sequence (P43220 24-463): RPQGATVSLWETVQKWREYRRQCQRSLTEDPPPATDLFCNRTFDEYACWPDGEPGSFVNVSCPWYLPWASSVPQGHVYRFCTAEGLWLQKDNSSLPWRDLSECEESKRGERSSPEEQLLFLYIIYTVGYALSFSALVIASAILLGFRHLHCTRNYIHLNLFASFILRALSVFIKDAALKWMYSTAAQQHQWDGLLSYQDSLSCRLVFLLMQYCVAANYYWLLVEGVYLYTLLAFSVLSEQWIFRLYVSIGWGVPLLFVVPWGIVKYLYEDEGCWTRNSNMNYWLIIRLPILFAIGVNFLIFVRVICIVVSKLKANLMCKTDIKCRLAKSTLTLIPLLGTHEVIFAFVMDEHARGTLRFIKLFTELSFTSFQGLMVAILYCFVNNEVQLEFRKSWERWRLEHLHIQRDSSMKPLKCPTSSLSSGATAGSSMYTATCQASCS

On to “(C10)H-Aib-DGTFISDYST-Aib-LDNLAARDFINWLIQTKITK-OH [Compound no. 44]”, for which the “Efficacy GLP-2R” value in assay [1] amounted to 100. Moreover, the “Efficacy GLP-1R” value in assay [2] is listed as 19. Also, in assay [3], the “rGIPR Efficacy (%)” value is 87.3%. In addition, the “rGLP-2R Efficacy (%)” value in assay [4] is reported as 90.0%. For the same substance, the “Efficacy GIPR” value in assay [5] is 110.

Consider “(C16)HADGTFISDYSTAibLDNLAARDFINWLIQTKITKNDWKHNITQ [Compound no. 53]”, for which the “Efficacy GLP-2R” value in assay [1] was determined as 79. Besides, the “rGIPR Efficacy (%)” value in assay [3] is on record as 77.3%. Also, the “rGLP-2R Efficacy (%)” value in assay [4] worked out at 18.0%. For the same substance, the “Efficacy GIPR” value in assay [5] is 90.

For “H-Aib-DG-K(γGlu-C10)-FISDYST-Aib-LDNLAARDFINWLIQTKITK-OH [Compound no. 24]”, the “Efficacy GLP-2R” value in assay [1] is recorded as 90. Moreover, in assay [6], the “AUC ± SD” value came out at 113 ± 4 and the “Emax ± SD (%)” value is 68 ± 3%. Further, the “rGIPR Efficacy (%)” value in assay [3] is 96.3%. Further, the “rGLP-2R Efficacy (%)” value in assay [4] was 76.3%. Further, the “Efficacy GIPR” value in assay [5] turned out to be 113. For the same substance, in assay [7], the “AUC ± SD” value came out at 117 ± 31 and the “Emax ± SD (%)” value came out at 57 ± 16%.

As for “H-Aib-DG-K(γGlu-C16 diacid)-FISDYST-Aib-LDNLAARDFINWLIQTKITK-OH [Compound no. 25]”, in assay [1], the “Efficacy GLP-2R” value stood at 88. Besides, the “AUC ± SD” value was 57 ± 2 in assay [6] and 42 ± 15 in assay [7]. The “Emax ± SD (%)” value turned out to be 46 ± 2% in assay [6] and 23 ± 7% in assay [7]. In assay [3], the “rGIPR Efficacy (%)” value is given as 71.7%. For the same substance, in assay [4], the “rGLP-2R Efficacy (%)” value is reported as 65.0%. In assay [5], the “Efficacy GIPR” value was found to be 93.

Turning to “H-Aib-DG-K(γGlu-C16)-FISDYSTILDNLAARDFINWLIQTKITK-OH [Compound no. 9]”, the “Efficacy GLP-2R” value in assay [1] turned out to be 91. The “Efficacy GLP-1R” value in assay [2] came to 32. In addition, the “rGIPR Efficacy (%)” value in assay [3] is 74.3%. Besides, in assay [4], the “rGLP-2R Efficacy (%)” value was found to be 82.0%. For the same substance, the “Efficacy GIPR” value in assay [5] amounted to 110.

“H-Aib-DGTFISDY-K(γGlu-C16)-T-Aib-LDALAARDFIEWLIQTKITK-OH [Compound no. 33]”: the “Efficacy GLP-2R” value in assay [1] stood at 97. For the same substance, in assay [6], the “AUC ± SD” value stood at 27 ± 2 and the “Emax ± SD (%)” value was 25 ± 3%. For the same substance, the “rGIPR Efficacy (%)” value in assay [3] is listed as 98.7%. The “rGLP-2R Efficacy (%)” value in assay [4] turned out to be 96.3%. Also, the “Efficacy GIPR” value in assay [5] is 101. For the same substance, in assay [7], the “AUC ± SD” value came to 23 ± 12 and the “Emax ± SD (%)” value came out at 9 ± 5%.

Turning to “H-Aib-DGTFISDY-K(γGlu-C16)-TAib-LDNLAARDFINWLIQTKITKNDWKHNITQ-OH [Compound no. 37]”, the “Efficacy GLP-2R” value in assay [1] was 97. The results for the “AUC ± SD” value in assay [6] and in assay [7] were 15 ± 4 and 0, respectively. The figures for the “Emax ± SD (%)” value in assay [6] and in assay [7] were 24 ± 5% and 15 ± 41%, respectively. For the same substance, the “rGIPR Efficacy (%)” value in assay [3] came to 91.0%. Further, the “rGLP-2R Efficacy (%)” value in assay [4] was found to be 83.3%.

Regarding “H-Aib-DGTFISDY-K(γGlu-C16)-TILDNLAARDFINWLIQTKGKKNDWKHNITQ-NH2 [Compound no. 14]”, the “Efficacy GLP-2R” value in assay [1] is 114. The “Efficacy GLP-1R” value in assay [2] is on record as 0. Moreover, the “rGIPR Efficacy (%)” value in assay [3] is listed as 98.3%. In addition, in assay [4], the “rGLP-2R Efficacy (%)” value is 93.3%. In assay [5], the “Efficacy GIPR” value was 101.

With “H-Aib-DGTFISDYS-K(γGlu-C16)-Aib-LDNLAARDFINWLIQTKITK-OH [Compound no. 35]”, in assay [1], the “Efficacy GLP-2R” value stood at 88. Also, the “Efficacy GLP-1R” value in assay [2] is listed as 31. For the same substance, in assay [3], the “rGIPR Efficacy (%)” value is 86.3%. Moreover, in assay [4], the “rGLP-2R Efficacy (%)” value stood at 87.3%. Also, the “Efficacy GIPR” value in assay [5] was 106. In assay [7], the “AUC ± SD” value was 58 ± 14 and the “Emax ± SD (%)” value is listed as 34 ± 7%.

With “H-Aib-DGTFISDYSTIL-K(γGlu-C16)-NLAARDFINWLIQTKITK-OH [Compound no. 13]”, the “Efficacy GLP-2R” value in assay [1] came out at 95. Besides, the “Efficacy GLP-1R” value in assay [2] was determined as 4. In assay [3], the “rGIPR Efficacy (%)” value is reported as 69.7%. Also, the “rGLP-2R Efficacy (%)” value in assay [4] is on record as 83.7%. In assay [5], the “Efficacy GIPR” value came to 95.
